Results from ChEMBL document CHEMBL1201862, “PubChem BioAssay data set” (2004).
Active and inactive are the calls of the source.

Key:
[1] = Luminescence Cell-Based Dose Response to Identify Activators of 5'UTR Stem-Loop Driven Prion Protein mRNA Translation in H4-C Neuroglioblastoma Cells. [Related pubchem assays: 1829 (Project Summary), 1814 (Primary HTS)]; assay type: functional
[2] = Luminescence Cell-Based Dose Confirmation HTS to Identify Activators of 5'UTR Stem-Loop Driven Alpha-Synuclein mRNA Translation in H4 Neuroglioblastoma Cells. [Related pubchem assays: 1829 (Project Summary), 1814 (Primary HTS)]; assay type: functional
[3] = Luminescence Cell-Based Dose Response HTS to Identify Activators of Luciferase Translation or Activity in H4 […] Cells. [Related pubchem assays: 1829 (Project Summary), 1814 (Primary HTS)]; assay type: functional
[4] = test system: H4; assay: Luminescence Cell-Based Dose Response HTS to Identify Activators of 5'UTR Stem-Loop Driven Prion Protein mRNA Translation in H4 Neuroglioblastoma Cells. [Related pubchem assays: 1829 (Project Summary), 1814 (Primary HTS)]; assay type: functional; conditions: Homo sapiens
[5] = Luminescence Cell-Based Dose Response to Identify Activators of Luciferase Translation or Activity in H4-C Neuroglioblastoma Cells. [Related pubchem assays: 1829 (Project Summary), 1814 (Primary HTS)]; assay type: functional
[6] = Luminescence Cell-Based Dose Confirmation to Identify Activators of 5'UTR Stem-Loop Driven Alpha-Synuclein mRNA Translation in H4 Neuroglioblastoma Cells. [Related pubchem assays: 1829 (Project Summary), 1814 (Primary HTS)]; assay type: functional
[7] = target: T1, Oxysterols receptor LXR-beta (Homo sapiens, UniProt P55055); assay type: functional, cell-based;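 also: Cell-based luminescence dose-response assay of agonist activity at LXR, run as a confirmatory counterscreen to a daf-12 agonist screen; HEK293 cells with Gal4-LXR fusion and GAL4-driven luciferase reporter; agonist potency from rising luciferase signal of a Gal4-LXR reporter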
T1 sequence (P55055 whole entry): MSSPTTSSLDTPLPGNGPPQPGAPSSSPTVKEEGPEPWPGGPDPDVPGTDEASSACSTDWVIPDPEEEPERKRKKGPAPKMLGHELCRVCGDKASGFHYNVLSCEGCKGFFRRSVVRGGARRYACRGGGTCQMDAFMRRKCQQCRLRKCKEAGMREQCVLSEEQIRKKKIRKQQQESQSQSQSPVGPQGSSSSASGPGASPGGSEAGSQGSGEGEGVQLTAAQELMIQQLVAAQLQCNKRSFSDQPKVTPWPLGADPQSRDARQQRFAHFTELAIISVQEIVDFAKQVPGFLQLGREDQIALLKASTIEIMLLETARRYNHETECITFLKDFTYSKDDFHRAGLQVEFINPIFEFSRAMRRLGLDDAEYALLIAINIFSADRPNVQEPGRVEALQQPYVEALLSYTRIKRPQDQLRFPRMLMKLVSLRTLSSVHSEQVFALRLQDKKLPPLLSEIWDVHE

[8] = cells
[9] = target: Glyceraldehyde-3-phosphate dehydrogenase (Homo sapiens, UniProt P04406)
[10] = target: Mitogen-activated protein kinase 10 (Homo sapiens, UniProt P53779); assay: Dose response biochemical screening assay for inhibitors of c-Jun N-Terminal Kinase 3 (JNK3). [Related pubchem assays: 746 ]
[11] = target: T2, Alkaline phosphatase, tissue-nonspecific isozyme (Homo sapiens, UniProt P05186); assay: human TNAP enzyme inhibitors, SAR follow-up, biochemical, luminescent, dose response (AID 1056)
T2 sequence (P05186 whole entry): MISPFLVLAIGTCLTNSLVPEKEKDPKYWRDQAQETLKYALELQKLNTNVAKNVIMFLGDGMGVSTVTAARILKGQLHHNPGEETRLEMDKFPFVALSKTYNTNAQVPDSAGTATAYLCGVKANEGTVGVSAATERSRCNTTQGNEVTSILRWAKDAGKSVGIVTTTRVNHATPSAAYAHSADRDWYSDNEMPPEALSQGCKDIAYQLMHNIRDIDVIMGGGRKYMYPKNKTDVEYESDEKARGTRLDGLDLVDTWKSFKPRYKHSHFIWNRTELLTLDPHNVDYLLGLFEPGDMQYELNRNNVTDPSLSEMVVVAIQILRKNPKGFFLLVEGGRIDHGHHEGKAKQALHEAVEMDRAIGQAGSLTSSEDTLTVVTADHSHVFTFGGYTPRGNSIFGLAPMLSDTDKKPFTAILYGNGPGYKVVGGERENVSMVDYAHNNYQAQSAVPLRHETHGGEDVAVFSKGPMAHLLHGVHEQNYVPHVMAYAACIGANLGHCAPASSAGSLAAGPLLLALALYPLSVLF

[12] = target: Ephrin type-A receptor 4 (Mus musculus, UniProt Q03137); assay: inhibitors of EphA4 binding to KYL peptide, primary screen, biochemical, colorimetric, mouse EphA4 (AID 689); assay type: functional
[13] = target: Cytochrome P450 2C9 (Homo sapiens, UniProt P11712)
[14] = target: T3, Mannose-6-phosphate isomerase (Homo sapiens, UniProt P34949); assay: inhibitors of human PMI, primary screen, biochemical, fluorescence intensity, coupled assay (AID 1209)
T3 sequence (P34949 whole entry): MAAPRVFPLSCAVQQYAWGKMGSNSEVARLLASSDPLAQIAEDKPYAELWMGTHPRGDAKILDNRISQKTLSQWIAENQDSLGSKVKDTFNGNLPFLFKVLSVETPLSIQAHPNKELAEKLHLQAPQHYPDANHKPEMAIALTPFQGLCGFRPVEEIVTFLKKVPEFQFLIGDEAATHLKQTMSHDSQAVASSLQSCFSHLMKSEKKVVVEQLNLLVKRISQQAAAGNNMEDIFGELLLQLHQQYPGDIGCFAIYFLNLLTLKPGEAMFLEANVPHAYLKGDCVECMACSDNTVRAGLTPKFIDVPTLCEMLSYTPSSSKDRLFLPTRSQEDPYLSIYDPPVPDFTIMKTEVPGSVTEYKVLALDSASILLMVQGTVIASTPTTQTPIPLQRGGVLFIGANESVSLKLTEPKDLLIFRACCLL

[15] = target: E3 ubiquitin-protein ligase Mdm2 (Homo sapiens, UniProt Q00987); assay: enhancers of MDM2-luciferase reporter signal, concentration-effect titration, project on inhibitors of MDM2 ubiquitin ligase, cellular assay, luminescent readout, 384-well plate format (AID 1394); assay type: functional;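 also: MDM2 E3 inhibitors raise luminescence so EC50 is for signal enhancement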
[16] = NIH-3T3 fibroblast cytotoxicity, dose response, cytotoxicity control, cell-based, fluorescence, Alamar Blue, secondary assay (AID 2327); assay type: functional;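 also: NIH-3T3 mouse fibroblasts cultured with fluconazole at 8 µg/mL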
[17] = C. albicans growth with fluconazole, confirmation, fluorescence, retest (AID 2467); assay type: functional, cell-based
[18] = target: Large T antigen (Simian virus 40, UniProt P03070); assay type: functional, Betapolyomavirus macacae;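 also: Confirmatory-stage PubChem screen for compounds that inhibit SV40 T antigen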
[19] = target: Bifunctional protein GlmU (Mycobacterium tuberculosis, UniProt P9WMN3); assay: Inhibitors of Mycobacterial Glucosamine-1-phosphate acetyl transferase (GlmU). Secondary screen.; design: species or system Mycobacterium tuberculosis H37Rv
[20] = target: Genome polyprotein (dengue virus type 2, UniProt P29990); assay: Dengue-2 NS5 methyltransferase inhibitors, primary screen, biochemical, confirmation dose response (AID 588689); assay type: functional
[21] = target: T4, Carboxy-terminal domain RNA polymerase II polypeptide A small phosphatase 1 (Homo sapiens, UniProt Q9GZU7); assay: inhibitors of CTDSP1, concentration-response testing, biochemical assay, absorbance-based, actives from ultra-high-throughput screening (AID 540297); assay type: functional
T4 sequence (Q9GZU7 whole entry): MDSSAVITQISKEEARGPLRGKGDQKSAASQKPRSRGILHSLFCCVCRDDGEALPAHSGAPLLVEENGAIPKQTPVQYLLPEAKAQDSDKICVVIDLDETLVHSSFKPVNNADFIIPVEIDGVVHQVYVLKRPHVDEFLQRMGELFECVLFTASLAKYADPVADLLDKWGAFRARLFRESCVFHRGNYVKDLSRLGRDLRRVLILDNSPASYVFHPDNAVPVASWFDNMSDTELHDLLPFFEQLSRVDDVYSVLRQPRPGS

[22] = target: Long-chain-fatty-acid--AMP ligase FadD28 (Mycobacterium tuberculosis, UniProt P9WQ59); assay: Fluorescence polarization aasay to screen for inhibitors that compete for the binding of FadD28 to a bisubstrate Measured in Biochemical System Using Plate Reader - 2147-01_Inhibitor_Dose_CherryPick_Activity.; assay type: functional, Mycobacterium tuberculosis H37Rv
[23] = target: T5, Histone-lysine N-methyltransferase NSD2 (Homo sapiens, UniProt O96028); assay type: biochemical
T5 sequence (O96028 whole entry): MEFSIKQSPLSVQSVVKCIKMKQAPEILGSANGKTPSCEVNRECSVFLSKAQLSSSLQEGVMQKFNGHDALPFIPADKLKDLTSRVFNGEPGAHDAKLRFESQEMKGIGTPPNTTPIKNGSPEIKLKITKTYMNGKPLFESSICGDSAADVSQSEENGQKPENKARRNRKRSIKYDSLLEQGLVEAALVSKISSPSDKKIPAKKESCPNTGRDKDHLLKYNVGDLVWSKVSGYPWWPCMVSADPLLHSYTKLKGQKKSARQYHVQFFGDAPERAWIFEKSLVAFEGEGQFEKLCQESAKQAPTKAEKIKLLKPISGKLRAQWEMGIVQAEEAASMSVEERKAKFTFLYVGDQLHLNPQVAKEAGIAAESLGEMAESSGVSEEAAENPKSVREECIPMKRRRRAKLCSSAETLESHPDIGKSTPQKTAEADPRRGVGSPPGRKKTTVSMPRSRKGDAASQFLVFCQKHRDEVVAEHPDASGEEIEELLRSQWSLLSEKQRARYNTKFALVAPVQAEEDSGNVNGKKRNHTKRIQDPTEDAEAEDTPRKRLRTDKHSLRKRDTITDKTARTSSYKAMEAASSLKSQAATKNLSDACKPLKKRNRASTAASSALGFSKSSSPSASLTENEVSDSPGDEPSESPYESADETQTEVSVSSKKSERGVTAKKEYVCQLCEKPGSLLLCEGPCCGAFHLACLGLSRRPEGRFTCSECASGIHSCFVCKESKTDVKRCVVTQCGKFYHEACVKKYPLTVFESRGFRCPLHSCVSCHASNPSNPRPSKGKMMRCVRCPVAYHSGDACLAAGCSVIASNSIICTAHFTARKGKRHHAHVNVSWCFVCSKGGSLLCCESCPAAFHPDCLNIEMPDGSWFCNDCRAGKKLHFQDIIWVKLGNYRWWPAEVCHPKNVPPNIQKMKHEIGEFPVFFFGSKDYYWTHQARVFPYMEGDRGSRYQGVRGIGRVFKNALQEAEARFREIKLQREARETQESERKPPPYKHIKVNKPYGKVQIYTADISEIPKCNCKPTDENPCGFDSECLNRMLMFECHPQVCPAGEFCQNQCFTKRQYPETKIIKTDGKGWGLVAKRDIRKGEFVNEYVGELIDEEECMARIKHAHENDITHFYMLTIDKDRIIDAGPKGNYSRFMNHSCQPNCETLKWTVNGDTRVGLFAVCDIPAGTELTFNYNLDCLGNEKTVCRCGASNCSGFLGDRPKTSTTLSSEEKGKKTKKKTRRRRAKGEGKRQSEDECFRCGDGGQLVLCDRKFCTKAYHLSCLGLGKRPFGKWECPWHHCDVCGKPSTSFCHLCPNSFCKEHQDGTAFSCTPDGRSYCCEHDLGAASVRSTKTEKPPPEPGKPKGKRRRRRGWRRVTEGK

[24] = HIV-1 Env-mediated cell fusion inhibitors, dose response, CCR5-tropic Env (AID 2279); assay type: functional
[25] = Luminescence Cell-Based Dose Retest to Confirm Inhibitors of Cancer Stem Cells. [Related pubchem assays (depositor defined):AID2717, AID2721]; assay type: functional; conditions: Homo sapiens
[26] = target: Cytochrome P450 2C19 (Homo sapiens, UniProt P33261); assay: qHTS Assay for Inhibitors and Substrates of Cytochrome P450 2C19. [Related pubchem assays: 410 ]; assay type: ADME; conditions: read-out: Potency
[27] = target: Cytochrome P450 3A4 (Homo sapiens, UniProt P08684); conditions: Potency;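 also: confirmatory qHTS run detecting inhibitors and substrates of CYP3A4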
Chain of Cytochrome P450 3A4 (P08684 whole entry): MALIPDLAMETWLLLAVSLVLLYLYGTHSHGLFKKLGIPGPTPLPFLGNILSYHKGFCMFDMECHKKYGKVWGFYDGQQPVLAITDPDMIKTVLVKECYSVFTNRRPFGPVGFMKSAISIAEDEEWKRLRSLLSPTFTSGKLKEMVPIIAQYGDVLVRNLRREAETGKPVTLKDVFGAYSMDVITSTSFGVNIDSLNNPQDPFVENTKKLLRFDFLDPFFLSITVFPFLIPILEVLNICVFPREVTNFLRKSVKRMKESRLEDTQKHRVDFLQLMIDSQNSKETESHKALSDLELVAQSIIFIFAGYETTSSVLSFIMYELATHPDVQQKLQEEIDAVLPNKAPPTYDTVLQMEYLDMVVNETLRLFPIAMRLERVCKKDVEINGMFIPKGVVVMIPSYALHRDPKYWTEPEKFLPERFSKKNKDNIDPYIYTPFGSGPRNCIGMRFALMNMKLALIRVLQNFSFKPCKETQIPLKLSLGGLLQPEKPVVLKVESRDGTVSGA

Chain of Ephrin type-A receptor 4 (Q03137 whole entry): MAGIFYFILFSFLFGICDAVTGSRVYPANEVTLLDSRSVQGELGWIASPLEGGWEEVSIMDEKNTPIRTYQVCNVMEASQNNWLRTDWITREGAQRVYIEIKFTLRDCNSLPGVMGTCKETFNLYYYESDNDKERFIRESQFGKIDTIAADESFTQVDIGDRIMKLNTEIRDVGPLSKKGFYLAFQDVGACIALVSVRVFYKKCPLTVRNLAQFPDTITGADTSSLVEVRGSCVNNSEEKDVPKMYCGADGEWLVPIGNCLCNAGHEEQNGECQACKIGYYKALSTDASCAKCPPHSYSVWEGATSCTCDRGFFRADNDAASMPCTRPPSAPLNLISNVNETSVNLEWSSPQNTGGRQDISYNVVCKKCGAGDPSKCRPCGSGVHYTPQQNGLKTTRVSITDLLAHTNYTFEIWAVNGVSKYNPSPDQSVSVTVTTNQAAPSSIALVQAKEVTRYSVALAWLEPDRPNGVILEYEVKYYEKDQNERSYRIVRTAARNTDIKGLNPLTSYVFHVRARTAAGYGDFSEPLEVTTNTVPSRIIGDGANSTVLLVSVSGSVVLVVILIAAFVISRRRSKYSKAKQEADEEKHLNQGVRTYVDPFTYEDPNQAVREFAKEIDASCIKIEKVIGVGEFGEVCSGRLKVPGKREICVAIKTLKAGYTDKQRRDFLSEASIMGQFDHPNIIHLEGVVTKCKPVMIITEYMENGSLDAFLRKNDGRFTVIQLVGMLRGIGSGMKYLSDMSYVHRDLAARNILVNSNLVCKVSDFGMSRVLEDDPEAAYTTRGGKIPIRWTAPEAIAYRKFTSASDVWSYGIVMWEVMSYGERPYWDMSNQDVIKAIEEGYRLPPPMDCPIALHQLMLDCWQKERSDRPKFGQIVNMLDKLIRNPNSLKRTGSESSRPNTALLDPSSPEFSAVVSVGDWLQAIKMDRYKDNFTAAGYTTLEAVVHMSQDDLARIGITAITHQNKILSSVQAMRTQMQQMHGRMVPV
Chain of E3 ubiquitin-protein ligase Mdm2 (Q00987 whole entry): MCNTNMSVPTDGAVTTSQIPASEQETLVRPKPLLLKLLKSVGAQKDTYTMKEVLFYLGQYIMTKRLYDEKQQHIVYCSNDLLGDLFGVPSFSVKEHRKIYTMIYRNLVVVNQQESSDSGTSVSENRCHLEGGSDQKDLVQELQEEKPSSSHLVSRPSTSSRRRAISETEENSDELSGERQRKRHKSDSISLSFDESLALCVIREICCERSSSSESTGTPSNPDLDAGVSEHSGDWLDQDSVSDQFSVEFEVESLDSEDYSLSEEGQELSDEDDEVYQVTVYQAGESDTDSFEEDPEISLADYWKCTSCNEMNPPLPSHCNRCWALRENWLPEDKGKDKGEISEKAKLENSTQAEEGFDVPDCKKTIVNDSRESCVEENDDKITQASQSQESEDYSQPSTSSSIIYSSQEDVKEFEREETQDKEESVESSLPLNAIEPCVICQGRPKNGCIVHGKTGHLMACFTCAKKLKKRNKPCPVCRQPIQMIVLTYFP
Chain of Glyceraldehyde-3-phosphate dehydrogenase (P04406 whole entry): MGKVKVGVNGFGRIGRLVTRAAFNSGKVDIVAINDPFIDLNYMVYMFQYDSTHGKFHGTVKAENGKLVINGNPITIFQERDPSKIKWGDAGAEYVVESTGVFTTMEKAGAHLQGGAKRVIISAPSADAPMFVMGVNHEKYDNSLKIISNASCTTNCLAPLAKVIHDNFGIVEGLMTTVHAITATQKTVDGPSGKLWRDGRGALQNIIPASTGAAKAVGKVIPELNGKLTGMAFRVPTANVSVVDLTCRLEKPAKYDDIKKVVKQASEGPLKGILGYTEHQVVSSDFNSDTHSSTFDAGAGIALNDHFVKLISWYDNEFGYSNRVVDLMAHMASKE
Chain of Mitogen-activated protein kinase 10 (P53779 whole entry): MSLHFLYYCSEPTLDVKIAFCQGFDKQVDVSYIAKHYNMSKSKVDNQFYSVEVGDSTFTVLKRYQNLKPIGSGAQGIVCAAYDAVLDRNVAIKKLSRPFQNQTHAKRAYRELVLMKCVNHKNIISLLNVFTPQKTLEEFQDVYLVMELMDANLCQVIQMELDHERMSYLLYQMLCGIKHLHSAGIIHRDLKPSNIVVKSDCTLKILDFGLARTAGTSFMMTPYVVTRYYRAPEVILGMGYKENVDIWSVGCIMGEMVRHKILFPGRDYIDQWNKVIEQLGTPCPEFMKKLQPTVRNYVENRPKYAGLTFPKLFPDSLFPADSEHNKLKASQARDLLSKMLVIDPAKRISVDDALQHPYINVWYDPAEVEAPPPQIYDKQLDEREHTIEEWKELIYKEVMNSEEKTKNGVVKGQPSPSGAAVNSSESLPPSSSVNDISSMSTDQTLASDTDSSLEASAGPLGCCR
Chain of Cytochrome P450 2C9 (P11712 whole entry): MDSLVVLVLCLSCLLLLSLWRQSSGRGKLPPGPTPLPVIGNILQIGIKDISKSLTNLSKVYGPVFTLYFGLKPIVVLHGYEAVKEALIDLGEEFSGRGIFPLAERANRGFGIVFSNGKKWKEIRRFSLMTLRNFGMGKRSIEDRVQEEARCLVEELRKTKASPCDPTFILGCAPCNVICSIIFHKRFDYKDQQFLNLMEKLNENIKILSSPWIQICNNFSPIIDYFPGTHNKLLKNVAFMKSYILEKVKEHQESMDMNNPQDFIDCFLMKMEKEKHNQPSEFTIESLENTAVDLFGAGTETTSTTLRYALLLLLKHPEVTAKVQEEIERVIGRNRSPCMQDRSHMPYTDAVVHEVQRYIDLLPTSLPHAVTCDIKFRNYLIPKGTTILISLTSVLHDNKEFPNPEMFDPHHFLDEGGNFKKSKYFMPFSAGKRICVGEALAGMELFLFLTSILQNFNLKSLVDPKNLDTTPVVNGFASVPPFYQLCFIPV
Chain of Cytochrome P450 2C19 (P33261 whole entry): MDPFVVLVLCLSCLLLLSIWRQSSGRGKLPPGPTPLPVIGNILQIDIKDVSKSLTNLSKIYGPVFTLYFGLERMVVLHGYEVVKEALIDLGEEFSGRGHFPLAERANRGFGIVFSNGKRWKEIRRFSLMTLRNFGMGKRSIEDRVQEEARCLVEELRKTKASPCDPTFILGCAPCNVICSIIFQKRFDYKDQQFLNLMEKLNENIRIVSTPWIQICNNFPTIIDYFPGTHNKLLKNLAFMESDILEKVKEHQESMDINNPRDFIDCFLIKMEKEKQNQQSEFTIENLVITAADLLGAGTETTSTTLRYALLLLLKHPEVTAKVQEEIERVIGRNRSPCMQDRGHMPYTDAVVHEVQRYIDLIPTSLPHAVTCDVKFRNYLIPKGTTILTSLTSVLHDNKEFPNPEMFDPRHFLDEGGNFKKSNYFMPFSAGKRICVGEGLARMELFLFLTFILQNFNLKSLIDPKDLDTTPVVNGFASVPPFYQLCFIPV
Chain of Genome polyprotein (P29990 2492-3391 limits assumed): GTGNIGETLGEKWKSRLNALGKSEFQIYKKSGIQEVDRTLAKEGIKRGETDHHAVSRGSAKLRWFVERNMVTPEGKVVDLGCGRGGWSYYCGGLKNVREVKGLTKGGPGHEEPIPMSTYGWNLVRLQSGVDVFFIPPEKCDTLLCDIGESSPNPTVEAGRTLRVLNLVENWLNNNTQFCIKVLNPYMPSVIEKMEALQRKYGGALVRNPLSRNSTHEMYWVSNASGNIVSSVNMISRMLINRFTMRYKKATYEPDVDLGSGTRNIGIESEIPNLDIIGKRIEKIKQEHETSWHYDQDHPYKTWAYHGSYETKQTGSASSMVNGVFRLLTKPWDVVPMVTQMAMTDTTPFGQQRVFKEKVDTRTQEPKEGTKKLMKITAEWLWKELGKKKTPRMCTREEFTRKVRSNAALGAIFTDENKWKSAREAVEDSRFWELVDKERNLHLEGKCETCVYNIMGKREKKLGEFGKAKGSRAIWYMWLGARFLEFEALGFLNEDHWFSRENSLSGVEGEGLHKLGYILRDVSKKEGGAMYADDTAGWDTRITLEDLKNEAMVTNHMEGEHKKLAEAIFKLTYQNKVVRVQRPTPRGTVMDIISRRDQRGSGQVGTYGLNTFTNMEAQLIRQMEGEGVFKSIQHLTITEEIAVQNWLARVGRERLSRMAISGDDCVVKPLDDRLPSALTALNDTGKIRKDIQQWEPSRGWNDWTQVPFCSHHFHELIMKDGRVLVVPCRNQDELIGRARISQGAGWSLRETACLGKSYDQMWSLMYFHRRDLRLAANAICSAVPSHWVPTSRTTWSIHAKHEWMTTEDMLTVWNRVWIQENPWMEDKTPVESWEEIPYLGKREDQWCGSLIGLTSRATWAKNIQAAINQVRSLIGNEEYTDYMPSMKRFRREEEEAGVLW

SMILES: O=C(Nc1ccccc1)Nc1cccc2nsnc12
- EC50 [1]: 0.452 µM (active)
- EC50 [2]: 0.19 µM (active)
- EC50 [3]: < 0.1 µM (inconclusive)
- EC50 [4]: 1.37 µM (active)
- EC50 [5]: 0.739 µM (active)
- EC50 [6]: > 12 µM (not active)
- EC50 [7]: > 67.5 µM (inactive)
- EC50 [8]: > 67.5 µM (inactive)

SMILES: c1ccc(-c2[nH]nc3ccccc23)cc1
- IC50 [9]: > 10 µM (inconclusive)
- IC50 [10]: 2.34 µM (active)
- IC50 [11]: 3.53 µM (active)

SMILES: COc1ccc2sc3ccccc3c(=O)c2c1OC
- IC50 [12]: > 100 µM (not active)
- AC50 [13]: 28.2 µM (inconclusive)

SMILES: Cc1cccc(NC(=O)C2CC(=O)n3cnnc3S2)c1 (stereo not given)
- IC50 [14]: > 50 µM (not active)

SMILES: Cn1c(=O)[nH]c(=O)c2c1nc(Br)n2CCCc1ccccc1
- EC50 [15]: 46.5 µM (not active)

SMILES: CC1CCN(C(=O)CSc2nc3ccccc3s2)CC1
- EC50 [1]: 2.07 µM (active)
- EC50 [2]: 0.185 µM (active)
- EC50 [3]: < 0.1 µM (inconclusive)
- EC50 [4]: 20.3 µM (active)
- EC50 [5]: 0.482 µM (active)
- EC50 [6]: 1.69 µM (active)

SMILES: O=C1/C(=C\c2ccc(-c3ccccc3Cl)o2)SC(=S)N1CC1CCCO1 (stereo not given)
- IC50 [12]: 0.4 µM (active)

SMILES: Cc1cccc(N2NC(=O)/C(=C/c3ccc(-c4ccc(Cl)c(C(=O)O)c4)o3)C2=O)c1
- EC50 [16]: > 150 µM (inactive)
- EC50 [17]: > 38 µM (not active)
- IC50 [18]: 22.3 µM (active)
- IC50 [19]: 122 µM (active)
- IC50 [20]: 22.5 µM (active)
- IC50 [21]: 3.84 µM (active)
- AC50 [22]: > 100 µM (inactive)
- AC50 [23]: > 20 µM (inactive)

SMILES: O=C(Nc1ccc(Cl)cc1)c1ccc(-n2cccn2)c([N+](=O)[O-])c1
- EC50 [15]: 8.84 µM (not active)

SMILES: COc1ccc(C(=O)/C=C/c2ccc(OCc3ccccc3)cc2)cc1CSCC(=O)O
- IC50 [24]: 42.8 µM (active)
- AC50 [25]: 5.79 µM (active)

SMILES: COC(=O)NC(c1cccs1)C(C(C)=O)C(=O)OC (stereo not given)
- AC50 [26]: 3.98 µM (inconclusive)
- AC50 [27]: 3.98 µM (inconclusive)
